Test results: paper PMC12802110, “Biochemical characterization of the full-length isoform of soluble adenylyl cyclase” (The Journal of Biological Chemistry, 2025)
Where two headings read alike, the source gives them in different places.

How the values were obtained:
[1] = system: mouse and human sACfl and sACt; assay: In vitro adenylyl cyclase activity assay, one result stated for all four sAC proteins; format: biochemical; conditions: for inhibition of cyclase activity at 10 mM: 10 mM test substance
[2] = system: sAC; parameters: method as in PMID 24100033; conditions: read-out: KM of sAC's substrate ATP; cited from earlier work
[3] = target: T1, human sACfl (Homo sapiens, UniProt Q96PN6); assay: In vitro adenylyl cyclase activity assay (two-column method), heterologously expressed human sACfl (GFP nanobody purified, complexed with Hsp70); format: biochemical; conditions: for EC50: 2 mM ATP
T1 construct: Schematic of full-length (sACfl) and truncated (sACt) sAC isoforms; eGFP (C, cleaved yes); His-tag (on eGFP) (C, cleaved yes); PreScission protease site (C); made in house; host or cells: Expi293 cells

[4] = target: T2, mouse sACfl (Mus musculus, UniProt Q8C0T9); assay: In vitro adenylyl cyclase activity assay (two-column method), endogenous mouse sACfl (FLAG); format: biochemical; conditions: for EC50: 2 mM ATP
T2 construct: Schematic of full-length (sACfl) and truncated (sACt) sAC isoforms; from tissue; host or cells: testes of homozygous double knock-in mice (FLAG pulldown, eluted with 3xFLAG peptide)
From the text: (§1) […]. To determine specific activities of endogenous mouse proteins, sACfl and sACt were quantitated by Western blot. For ATP kinetics, representative experiments are shown with SEM determined from normalized data.

[5] = target: T3, human sACt (Homo sapiens, UniProt Q96PN6); assay: In vitro adenylyl cyclase activity assay (two-column method), heterologously expressed human sACt (GST); format: biochemical; conditions: for EC50: 2 mM ATP
T3 construct: sACt contains only the C1 and C2 catalytic domains; GST; made in house
T3 sequence (Q96PN6 1-469 limits assumed): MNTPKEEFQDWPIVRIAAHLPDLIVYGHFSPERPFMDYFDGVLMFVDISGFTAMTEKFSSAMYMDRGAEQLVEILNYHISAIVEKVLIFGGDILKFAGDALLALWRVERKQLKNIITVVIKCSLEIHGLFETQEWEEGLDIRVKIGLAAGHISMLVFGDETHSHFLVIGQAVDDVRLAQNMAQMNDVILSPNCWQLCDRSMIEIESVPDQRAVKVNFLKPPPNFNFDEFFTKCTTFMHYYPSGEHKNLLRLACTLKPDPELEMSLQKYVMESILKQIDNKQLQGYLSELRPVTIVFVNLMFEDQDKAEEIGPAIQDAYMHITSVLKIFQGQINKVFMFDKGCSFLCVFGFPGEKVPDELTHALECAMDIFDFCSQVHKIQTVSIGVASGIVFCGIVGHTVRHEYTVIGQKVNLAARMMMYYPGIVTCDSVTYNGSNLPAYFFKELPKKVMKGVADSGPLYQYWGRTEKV

[6] = target: T4, mouse sACt (Mus musculus, UniProt Q8C0T9); assay: In vitro adenylyl cyclase activity assay (two-column method), endogenous mouse sACt (Strep); format: biochemical; conditions: for EC50: 2 mM ATP
T4 construct: from tissue; host or cells: testes of homozygous double knock-in mice (Strep pulldown after FLAG depletion, eluted with biotin)
T4 sequence (Q8C0T9 1-471 isoform Q8C0T9-2): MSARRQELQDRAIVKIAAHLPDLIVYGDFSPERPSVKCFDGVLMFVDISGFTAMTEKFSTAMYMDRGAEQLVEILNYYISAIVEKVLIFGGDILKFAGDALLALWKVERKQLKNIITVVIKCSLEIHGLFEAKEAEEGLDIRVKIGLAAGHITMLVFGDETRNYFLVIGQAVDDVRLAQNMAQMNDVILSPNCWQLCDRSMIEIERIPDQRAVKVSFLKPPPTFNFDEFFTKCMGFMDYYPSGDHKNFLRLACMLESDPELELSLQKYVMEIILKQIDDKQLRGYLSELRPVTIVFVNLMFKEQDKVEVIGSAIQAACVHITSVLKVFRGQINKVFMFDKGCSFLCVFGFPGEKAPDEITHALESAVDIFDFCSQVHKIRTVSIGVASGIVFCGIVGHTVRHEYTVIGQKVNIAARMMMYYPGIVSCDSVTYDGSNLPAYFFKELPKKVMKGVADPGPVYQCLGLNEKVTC
From the text: as §1

[7] = target: T5, mouse sAC isoforms (sACfl and sACt) (Mus musculus, UniProt Q8C0T9); assay: In vitro adenylyl cyclase activity assay, one result stated for both mouse sAC isoforms; conditions: read-out: IC50, mouse sAC; text summary (Fig. 5)
T5 sequence (Q8C0T9 1-469 limits assumed): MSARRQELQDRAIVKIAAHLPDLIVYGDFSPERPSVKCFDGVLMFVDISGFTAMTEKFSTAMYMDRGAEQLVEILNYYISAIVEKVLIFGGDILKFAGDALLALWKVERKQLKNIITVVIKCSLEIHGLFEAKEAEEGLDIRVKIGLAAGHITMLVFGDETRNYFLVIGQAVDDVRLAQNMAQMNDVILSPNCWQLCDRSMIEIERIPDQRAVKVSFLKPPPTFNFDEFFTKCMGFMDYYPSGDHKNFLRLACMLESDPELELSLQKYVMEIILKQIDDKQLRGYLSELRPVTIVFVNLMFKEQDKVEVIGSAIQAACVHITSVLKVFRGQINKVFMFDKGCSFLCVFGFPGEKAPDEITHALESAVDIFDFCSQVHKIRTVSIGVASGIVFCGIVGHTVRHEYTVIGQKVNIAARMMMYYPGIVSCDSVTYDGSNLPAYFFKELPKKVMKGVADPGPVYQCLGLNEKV

[8] = 2 mM ATP, 10 mM MgCl2, 10 mM CaCl2, 40 mM NaHCO3
[9] = in the presence of Mg^2+, Ca^2+ and HCO3^- (20-40 mM MgCl2, 10 mM CaCl2, 40 mM NaHCO3), read-out: KM for substrate Mg^2+-ATP
[10] = 10 mM MgCl2, 10 mM CaCl2, read-out: EC50 for HCO3^-
[11] = 10 mM MgCl2, 40 mM NaHCO3, read-out: EC50 for Ca^2+
[12] = 10 mM MgCl2, 10 mM CaCl2, 40 mM NaHCO3

T2 sequence (Q8C0T9 whole entry, the tested form may be a part, canonical isoform): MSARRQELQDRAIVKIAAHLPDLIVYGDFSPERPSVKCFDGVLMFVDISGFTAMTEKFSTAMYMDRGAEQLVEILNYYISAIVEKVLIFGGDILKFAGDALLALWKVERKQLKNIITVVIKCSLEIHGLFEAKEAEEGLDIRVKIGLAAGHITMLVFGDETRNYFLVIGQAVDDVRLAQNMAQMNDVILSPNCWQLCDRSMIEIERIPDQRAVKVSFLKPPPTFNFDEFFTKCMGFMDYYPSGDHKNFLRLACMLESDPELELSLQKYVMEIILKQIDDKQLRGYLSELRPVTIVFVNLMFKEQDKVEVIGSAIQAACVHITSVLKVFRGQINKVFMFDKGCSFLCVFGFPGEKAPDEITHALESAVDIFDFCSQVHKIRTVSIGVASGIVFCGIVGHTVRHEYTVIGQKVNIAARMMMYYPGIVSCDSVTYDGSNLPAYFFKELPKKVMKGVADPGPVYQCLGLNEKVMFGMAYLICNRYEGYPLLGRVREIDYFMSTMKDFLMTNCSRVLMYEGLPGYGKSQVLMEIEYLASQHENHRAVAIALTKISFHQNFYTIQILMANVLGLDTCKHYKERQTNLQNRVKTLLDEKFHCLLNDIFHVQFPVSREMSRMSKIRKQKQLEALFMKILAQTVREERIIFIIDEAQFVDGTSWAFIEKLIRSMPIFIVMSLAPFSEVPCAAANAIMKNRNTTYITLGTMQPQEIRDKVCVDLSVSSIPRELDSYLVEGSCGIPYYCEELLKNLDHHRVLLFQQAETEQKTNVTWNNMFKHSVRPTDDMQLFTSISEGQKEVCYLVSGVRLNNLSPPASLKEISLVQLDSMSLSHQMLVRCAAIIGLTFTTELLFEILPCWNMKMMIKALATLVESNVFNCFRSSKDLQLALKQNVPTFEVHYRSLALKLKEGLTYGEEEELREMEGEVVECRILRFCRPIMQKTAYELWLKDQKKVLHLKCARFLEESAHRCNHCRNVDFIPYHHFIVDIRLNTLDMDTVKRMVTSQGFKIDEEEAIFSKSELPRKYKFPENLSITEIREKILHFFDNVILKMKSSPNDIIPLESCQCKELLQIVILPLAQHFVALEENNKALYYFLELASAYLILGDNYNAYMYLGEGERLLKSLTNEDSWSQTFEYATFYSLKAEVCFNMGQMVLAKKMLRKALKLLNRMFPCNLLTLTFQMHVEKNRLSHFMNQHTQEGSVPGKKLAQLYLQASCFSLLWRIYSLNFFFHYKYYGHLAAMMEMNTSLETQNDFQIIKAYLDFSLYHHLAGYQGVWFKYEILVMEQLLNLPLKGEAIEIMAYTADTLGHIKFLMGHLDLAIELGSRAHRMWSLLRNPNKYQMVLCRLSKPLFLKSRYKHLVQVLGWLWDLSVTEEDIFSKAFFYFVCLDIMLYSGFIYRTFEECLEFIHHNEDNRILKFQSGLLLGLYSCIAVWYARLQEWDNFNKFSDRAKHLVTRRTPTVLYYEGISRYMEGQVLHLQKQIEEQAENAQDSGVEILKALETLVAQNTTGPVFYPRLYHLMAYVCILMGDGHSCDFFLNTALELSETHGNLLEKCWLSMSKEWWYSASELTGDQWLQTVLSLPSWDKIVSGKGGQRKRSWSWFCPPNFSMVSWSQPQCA
T1 sequence (Q96PN6 whole entry, the tested form may be a part, canonical isoform): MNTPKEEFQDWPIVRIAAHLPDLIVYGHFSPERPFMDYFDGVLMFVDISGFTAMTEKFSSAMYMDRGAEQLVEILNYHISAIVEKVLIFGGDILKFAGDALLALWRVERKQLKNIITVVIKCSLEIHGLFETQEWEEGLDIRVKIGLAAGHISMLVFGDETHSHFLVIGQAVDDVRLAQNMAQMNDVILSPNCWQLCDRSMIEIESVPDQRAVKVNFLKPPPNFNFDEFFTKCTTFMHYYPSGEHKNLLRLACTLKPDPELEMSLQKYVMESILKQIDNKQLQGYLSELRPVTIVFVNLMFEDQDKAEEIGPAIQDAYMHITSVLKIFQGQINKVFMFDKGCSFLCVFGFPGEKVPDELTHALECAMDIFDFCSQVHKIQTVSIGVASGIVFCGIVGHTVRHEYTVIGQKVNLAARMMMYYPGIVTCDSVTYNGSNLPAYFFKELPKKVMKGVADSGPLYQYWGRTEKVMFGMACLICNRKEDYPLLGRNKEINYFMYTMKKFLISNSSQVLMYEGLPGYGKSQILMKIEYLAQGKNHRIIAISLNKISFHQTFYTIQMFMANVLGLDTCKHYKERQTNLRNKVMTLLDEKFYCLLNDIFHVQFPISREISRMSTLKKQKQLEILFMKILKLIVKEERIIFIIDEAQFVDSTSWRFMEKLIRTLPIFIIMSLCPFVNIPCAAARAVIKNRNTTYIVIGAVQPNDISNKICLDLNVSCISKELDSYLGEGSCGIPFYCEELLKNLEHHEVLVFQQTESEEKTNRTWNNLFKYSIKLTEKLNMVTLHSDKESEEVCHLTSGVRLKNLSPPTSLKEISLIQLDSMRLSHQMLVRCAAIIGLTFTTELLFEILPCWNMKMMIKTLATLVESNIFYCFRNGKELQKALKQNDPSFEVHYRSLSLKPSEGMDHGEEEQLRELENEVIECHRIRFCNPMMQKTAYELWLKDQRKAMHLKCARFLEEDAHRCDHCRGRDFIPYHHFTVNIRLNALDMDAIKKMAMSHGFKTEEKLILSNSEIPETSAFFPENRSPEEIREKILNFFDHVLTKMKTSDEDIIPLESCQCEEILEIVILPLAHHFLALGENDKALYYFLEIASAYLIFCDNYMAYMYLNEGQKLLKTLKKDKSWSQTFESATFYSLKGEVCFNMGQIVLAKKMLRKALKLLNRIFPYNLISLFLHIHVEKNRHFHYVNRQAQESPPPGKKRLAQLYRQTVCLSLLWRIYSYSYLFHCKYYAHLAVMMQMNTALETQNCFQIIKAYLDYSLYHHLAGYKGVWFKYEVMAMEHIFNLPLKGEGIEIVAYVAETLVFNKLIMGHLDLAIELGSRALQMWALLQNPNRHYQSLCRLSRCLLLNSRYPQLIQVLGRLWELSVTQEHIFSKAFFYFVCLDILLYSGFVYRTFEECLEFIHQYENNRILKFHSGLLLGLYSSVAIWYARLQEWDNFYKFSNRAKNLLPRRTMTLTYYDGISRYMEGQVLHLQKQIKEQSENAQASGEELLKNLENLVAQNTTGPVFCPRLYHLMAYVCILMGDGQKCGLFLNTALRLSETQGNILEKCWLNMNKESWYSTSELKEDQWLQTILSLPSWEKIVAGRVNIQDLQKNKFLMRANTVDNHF
T1 sequence (P0DMV8 whole entry partner, the tested form may be a part, canonical isoform): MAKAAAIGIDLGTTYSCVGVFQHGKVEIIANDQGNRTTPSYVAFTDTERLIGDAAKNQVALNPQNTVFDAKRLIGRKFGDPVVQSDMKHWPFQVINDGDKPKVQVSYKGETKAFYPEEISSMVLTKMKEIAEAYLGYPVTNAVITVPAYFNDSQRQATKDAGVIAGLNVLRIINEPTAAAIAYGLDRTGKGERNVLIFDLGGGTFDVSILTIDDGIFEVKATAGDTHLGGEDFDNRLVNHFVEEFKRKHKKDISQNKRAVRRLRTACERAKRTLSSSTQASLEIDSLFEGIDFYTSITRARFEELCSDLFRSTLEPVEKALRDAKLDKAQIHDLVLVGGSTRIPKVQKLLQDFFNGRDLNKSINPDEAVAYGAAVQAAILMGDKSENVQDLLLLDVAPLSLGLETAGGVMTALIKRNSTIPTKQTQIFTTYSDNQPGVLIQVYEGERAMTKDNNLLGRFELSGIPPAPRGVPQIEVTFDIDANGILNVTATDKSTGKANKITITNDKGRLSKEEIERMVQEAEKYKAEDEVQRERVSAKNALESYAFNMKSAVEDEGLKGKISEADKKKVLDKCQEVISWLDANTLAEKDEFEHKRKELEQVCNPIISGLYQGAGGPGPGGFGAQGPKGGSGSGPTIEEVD

## Nc1ncnc2c1ncn2[C@@H]1O[C@H](COP(=O)(O)OP(=O)(O)O)[C@@H](O)[C@H]1O [ADP]
[1]; [8]
  inhibition of cyclase activity at 10 mM: ∼75% inhibition at 10 mM
[1]; at 10 mM
  inhibition of cyclase activity (in words): some inhibition

## Nc1ccn([C@@H]2O[C@H](COP(=O)(O)OP(=O)(O)OP(=O)(O)O)[C@@H](O)[C@H]2O)c(=O)n1 [CTP]
[1]; [8]
  inhibition of cyclase activity at 10 mM: >50% inhibition at 10 mM

## Nc1ncnc2c1ncn2[C@@H]1O[C@H](COP(=O)(O)OP(=O)(O)OP(=O)(O)O)[C@@H](O)[C@H]1O [ATP]
[2]
  Km: ~2000 µM
[3]; [9]
  Km: 2200 ± 300 µM
[4]; [9]
  Km: 2200 ± 390 µM
[5]; [9]
  Km: 1800 ± 280 µM
[6]; [9]
  Km: 2700 ± 250 µM

## O=c1[nH]cnc2c1ncn2[C@@H]1O[C@H](COP(=O)(O)OP(=O)(O)OP(=O)(O)O)[C@@H](O)[C@H]1O [ITP]
[1]; [8]
  inhibition of cyclase activity at 10 mM: ∼50% inhibition at 10 mM

## Nc1nc2c(ncn2[C@@H]2O[C@H](COP(=O)(O)OP(=O)(O)OP(=O)(O)O)[C@@H](O)[C@H]2O)c(=O)[nH]1 [GTP]
[1]; [8]
  inhibition of cyclase activity at 10 mM: ∼50% inhibition at 10 mM

## Cc1cn([C@H]2C[C@H](O)[C@@H](COP(=O)(O)OP(=O)(O)OP(=O)(O)O)O2)c(=O)[nH]c1=O [TTP]
[1]; [8]
  inhibition of cyclase activity at 10 mM: ∼50% inhibition at 10 mM

## O=P(O)(O)OP(=O)(O)O [Pyrophosphate]
[1]; 1 mM test substance, 2 mM ATP, 10 mM MgCl2, 10 mM CaCl2, 40 mM NaHCO3
  inhibition of cyclase activity at 1 mM: ~25%
[1]; [8]
  inhibition of cyclase activity at 10 mM: > 90%
[1]; at 1 mM
  inhibition of cyclase activity (in words): slight inhibition
[1]; at concentrations >10 mM
  inhibition of cyclase activity (in words): fully inhibited

## O=C(O)O [HCO3^–]
[3]; [10]
  EC50: 14000 ± 1200 µM
[4]; [10]
  EC50: 21000 ± 1900 µM
[5]; [10]
  EC50: 14000 ± 1000 µM
[6]; [10]
  EC50: 19000 ± 1600 µM

## Nc1ncnc2c1ncn2[C@@H]1O[C@H](CO)[C@@H](O)[C@H]1O [Adenosine]
[1]; [8]
  inhibition of cyclase activity at 10 mM: >50% inhibition at 10 mM
[1]; at 10 mM
  inhibition of cyclase activity (in words): some inhibition

## Nc1nc2c(ncn2[C@@H]2O[C@H](COP(=O)(O)OP(=O)(O)O)[C@@H](O)[C@H]2O)c(=O)[nH]1 [GDP]
[1]; [8]
  inhibition of cyclase activity at 10 mM: ∼75% inhibition at 10 mM
[1]; at 10 mM
  inhibition of cyclase activity (in words): some inhibition

## O=c1ccn([C@@H]2O[C@H](COP(=O)(O)OP(=O)(O)OP(=O)(O)O)[C@@H](O)[C@H]2O)c(=O)[nH]1 [UTP]
[1]; [8]
  inhibition of cyclase activity at 10 mM: ∼50% inhibition at 10 mM

## [Ca+2].[Cl-].[Cl-] [Ca^2+]
[3]; [11]
  EC50: 1700 ± 150 µM
[4]; [11]
  EC50: 1300 ± 150 µM
[5]; [11]
  EC50: 1700 ± 160 µM
[6]; [11]
  EC50: 1400 ± 110 µM

## Nc1nc(Cl)cc(-c2nn(C(F)F)cc2Cc2ccccc2OCCN2CCOC[C@H]2CO)n1 [TDI-11861]
[4]; [12]
  IC50: 0.0224 ± 0.0093 µM
[7]
  IC50: ~0.021 µM
[6]; [12]
  IC50: 0.0211 ± 0.0045 µM

## Nc1nc2c(ncn2[C@@H]2O[C@H](COP(=O)(O)O)[C@@H](O)[C@H]2O)c(=O)[nH]1 [GMP]
[1]; [8]
  inhibition of cyclase activity at 10 mM: No inhibition at 10 mM
[1]; at concentrations up to 10 mM
  inhibition of cyclase activity (in words): no inhibition

## Nc1ncnc2c1ncn2[C@@H]1O[C@H](COP(=O)(O)O)[C@@H](O)[C@H]1O [AMP]
[1]; [8]
  inhibition of cyclase activity at 10 mM: No inhibition at 10 mM
[1]; at concentrations up to 10 mM
  inhibition of cyclase activity (in words): no inhibition
